Experiment: gradient 5% acetonitrile 3 min, to 50% in 2 min, to 85% in 15 min, held 3 min, 100 µL/min
Settings: column: Zorbax Extend-C18 2.1 x 50 mm; eluents: water / acetonitrile, 0.1% formic acid
Procedure, shortened: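 Each retention time is based on an adduct peak selected computationally and verified by manual inspection. Measurements used HPLC–quadrupole time-of-flight mass spectrometry in positive and negative ionization mode on mixtures of ~100 pure standards. Chromatography ran on a Zorbax Extend-C18 column (2.1 × 50 mm, 1.8 μm) at 100 μL/min with water and acetonitrile, each containing 0.1% formic acid, and dead and dwell volumes of 40 μL and 900 μL.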

RP-LC retention time [s]	Structure (SMILES)
855	CCOc1cccc(CNC(=O)c2cnc(-c3ccccc3)nc2-c2ccncc2)c1
604	COc1ccc(C(=O)Nc2ccc(-c3cn4ccc(C)nc4n3)cc2)cc1OC
610	Cc1ccc(-c2cc(C(=O)NCCCN3CCN(C)CC3)c(C)[nH]2)cc1C
721	CC(C)c1noc(-c2cccnc2N2CCCN(Cc3c(F)cccc3Cl)CC2)n1
892	COc1ccc(NC(=O)c2nnc(COCC(=O)NCCc3c[nH]c4ccc(C)cc34)s2)cc1
674	[O-][n+]1ccc(CC(O)(C(F)(F)F)C(F)(F)F)cc1
770	Cc1nnc2ccc(-c3noc(-c4ccccc4F)n3)cn12
834	O=C(Cn1c(=O)c2cccn2c2ccc(F)cc21)NCCc1c[nH]c2ccccc12
799	CCOc1ccc(CC(=O)N2C[C@@H]3C[C@H](NC(=O)c4ccccc4)[C@H]2C3)cc1
605	CN1CCN(CCNC(=O)CCCN2C(=O)C(c3ccccc3)Oc3cccnc32)CC1 (stereo not drawn)
746	COc1cc(-c2nc3ccc(Cl)cn3c2Nc2ccc(Cl)cc2)ccc1O
1100	O=S(=O)(Cc1ccc(F)cc1Cl)N1CCc2nc(-c3ccc(F)cc3)ncc2C1
1140	COc1ccc(Cl)cc1NC(=O)c1c(N)c(C(=O)c2cccs2)n2ccccc12
626	Cc1[nH]ncc1CNC(=O)C1CCN(C(=O)c2ncn3c2COC(c2ccc(F)cc2)C3)CC1 (stereo not drawn)
882	Cc1noc(-c2nn(C)c3c2CN(C(=O)c2cc4c(s2)CCCC4)CC3)n1
818	Cc1cc(Cl)ccc1NC(=O)Cn1c(C)nc2onc(C)c2c1=O
850	Cc1cc(C)cc(C(=O)N2CCC3(CC2)NC(=O)c2cc(Cl)ccc2N3C)c1
579	CC(C)CNC(=O)N1CCN(Cc2nc3cc(C(=O)N(C)C)ccc3o2)CC1
704	Cc1cccc(S(=O)(=O)Nc2cc(-c3cn4ccc(C)cc4n3)ccc2C)c1
577	CNc1cccnc1OC1CCN(Cc2ccccn2)C1 (stereo not drawn)
614	CN1CCN(CCCNC(=O)CCc2cn(-c3ccccc3)nc2-c2ccc3c(c2)OCO3)CC1
780	CC(C)Cc1nnc(NC(=O)C2CCN(C(=O)c3cccc(F)c3)CC2)s1

RP-LC retention time [s]	Structure (SMILES)
836	CCC(=O)N(C1CCOCC1)C1CCN(S(=O)(=O)c2ccc(F)c(C)c2)CC1
604	CCc1nc2cc(N3CCCC(C(=O)NCCN(C)C)C3)cnc2nc1CC (stereo not drawn)
833	COc1ccc(NC(=O)Cn2c(=O)n(-c3ccc(C)cc3)c3ncccc32)c(C)c1
758	O=C(Cc1cccs1)NC1CCCN(c2cc(-c3ccccc3)[nH]n2)C1 (stereo not drawn)
679	O=C(NCCOCCOCCNC(=O)Nc1ccccc1)Nc1ccccc1
606	O=C(Nc1nc(CC(=O)N2CCN(C(=O)C3CCCO3)CC2)cs1)c1ccsc1 (stereo not drawn)
925	CCOCCCN1C(=O)CN(C2CCCCCC2)C(=O)C1c1ccc(OCC)c(OC)c1 (stereo not drawn)
646	O=C(CN1c2ccc(F)cc2-c2ccccc2S1(=O)=O)NCc1cccnc1
891	Cc1onc(-c2ccccc2Cl)c1C(=O)OCn1nnc2ccccc2c1=O
694	O=C(c1ccoc1)N1CCC(c2noc(C3CC3)n2)C1 (stereo not drawn)
587	NC(=O)C1CCN(C(=O)NC2CC(=O)N(c3ccc(Cl)cc3)C2)CC1 (stereo not drawn)
666	O=S(=O)(c1ccc2c(c1)-c1oncc1CO2)N1CCN(Cc2ccc3c(c2)OCO3)CC1
875	O=C(CNC(=O)C(c1ccccc1)c1ccccc1)NCC(=O)N1CCCc2ccccc21
847	COCC1CN(C(=O)c2ccc(Br)o2)CCC1(F)F (stereo not drawn)
733	COc1ccc(Cn2nnc3cc(C(=O)NCC4CCCO4)ccc32)cc1 (stereo not drawn)
719	CN(C)C(=O)c1cccc2c1CCN2C(=O)c1ccc(F)cc1
1020	Cc1cccc(-c2noc(C3CCCN3C(=O)Nc3ccccc3F)n2)c1 (stereo not drawn)
1110	CCOc1ccccc1N1CCN(S(=O)(=O)c2nn(C)cc2C(=O)NC2CCCCC2)CC1
971	COC(=O)c1cccc(C(=O)Nc2ccc(Cl)cc2C)n1
747	CC(C)CC(=O)N1CCc2c(c(C(=O)N3CCCC(C(=O)Nc4ccccc4)C3)nn2C)C1 (stereo not drawn)
854	Cn1cc(C(=O)NCc2ccc3c(c2)OCO3)c(S(=O)(=O)N2CCCCC2)n1
698	CCOC(=O)C1CCN(C(=O)C2CCCN(c3nccc(C)n3)C2)CC1 (stereo not drawn)

RP-LC retention time [s]	Structure (SMILES)
885	CCn1cc(C2=CCN(C(=O)Nc3ccc(OC)c(F)c3)CC2)c2cccnc21
761	CCN1C(=O)c2cccnc2Sc2cc(CNC(=O)Cc3cccc(F)c3)ccc21
953	COC(=O)c1ccc2c(=O)n(-c3cccc(C)c3)c(N3CCCC3)nc2c1
807	Cc1ccc(CNC(=O)C2CCCN(c3ncnc4c3oc3ccccc34)C2)cc1 (stereo not drawn)
832	CC1CCC2(CC1)NC(=O)N(CC(=O)NCCCc1ccccc1)C2=O (stereo not drawn)
781	COc1ccc(NC(=O)NC2CCN(c3ccc(F)cc3)C2=O)cc1F (stereo not drawn)
676	Cc1ccc(NC(=O)N2CCC(n3cnc4cccnc43)CC2)c(Cl)c1
1080	O=C(c1ccc2c(c1)OCO2)N1CCCC1c1nc(-c2cccc(C(F)(F)F)c2)no1 (stereo not drawn)
894	Cc1ccc2c(Sc3ccc(Cl)cc3)c(C(=O)N3CCN(c4ccccn4)CC3)[nH]c2c1
814	COCCNC(=O)C1COC2(CCCCC2)N1C(=O)c1cccc(C(F)(F)F)c1 (stereo not drawn)
686	COc1cccc(C2Nc3ccccc3NC3=C2C(=O)CC(C)(C)C3)c1O (stereo not drawn)
715	CC1(C)Cc2cccc(OCC(=O)NCC3CCN(S(C)(=O)=O)CC3)c2O1
594	O=S(=O)(NCCN1CCN(c2ccccc2F)CC1)c1cc(F)ccc1F
768	Cc1ccc(C)c(S(=O)(=O)N2CCC(n3cnnc3C(C)C)CC2)c1
720	CCN(CC)C(=O)c1c(C)sc2ccn(CC)c(=O)c12
948	Cc1cc(C(=O)Nc2nc(-c3cc4ccccc4o3)cs2)on1
641	COc1cccc(CNC(=O)C2CCN(C(=O)c3n[nH]c4ccccc34)CC2)c1
697	Cc1nc(-c2ccncc2)cc2nn(CC(=O)NCc3ccccc3)c(=O)n12
650	Cn1cc(-c2ccncc2)cc1C(=O)N1CCN(c2ccccc2F)CC1
592	CC(C)c1noc(COC2CCN(C(=O)Cn3ccnc3)CC2)n1
600	CCc1nc2cc3c(cc2n1CC(=O)N1CCCCC1)OCCO3
784	Cc1ccc2[nH]cc(CCNC(=O)c3cc(-c4cccnc4)nc4ccccc34)c2c1

RP-LC retention time [s]	Structure (SMILES)
1080	O=C(Nc1ccccc1)C1CCN(S(=O)(=O)c2cc(-c3noc(C4CCC4)n3)cs2)CC1
562	Cc1noc([C@@H]2CN(Cc3c(F)cccc3F)C[C@H]2CO)n1
942	O=C(Nc1ccc(Cl)cc1)N1CCC(n2c(C(F)(F)F)nc3cccnc32)CC1
761	Cc1cc(Nc2ccccc2)nc(N2CCN(C(=O)Nc3ccc(Cl)cc3)CC2)n1
936	CCOC(=O)c1noc2nc(C)nc(Nc3ccc(C)cc3)c12
588	CN(C)c1ccc(CNC(=O)CCc2c(-c3ccc(Cl)cc3)nc3ccccn23)cc1
1010	CCOC(=O)c1cc(C)nc2c1c(=O)n(Cc1cccc(F)c1)c(=O)n2C
575	O=C(NCCc1nnc2ccc(SCc3ccccn3)nn12)c1ccccc1
1010	CC(C)Cn1cc(S(=O)(=O)Nc2ccc(Cl)cc2F)c2cccnc21
1050	CCc1nc2c(c(=O)n1CC(=O)NCCCc1ccccc1)CN(Cc1ccccc1)CC2
648	Cc1nc2ccn(Cc3cccnc3)c(=O)c2cc1C(=O)NCCC1=CCCCC1
936	Cc1ccc(NC(=O)c2cnc3c(c2)c(=O)n(C)c(=O)n3-c2ccc(F)cc2)cc1
1060	O=C(Nc1ccc2ccccc2c1)c1cccc(F)c1
649	CCNC(=O)c1cc(C)nc2ccc(Cl)cc12
688	Cc1ccc(C)c(NC(=O)Cn2c(N3CCCCC3)nc(C)cc2=O)c1
724	O=C(C1CCN(c2cc(N3CCCCC3)ncn2)CC1)N1CCN(c2ccccc2)CC1
636	Cc1ccc2c(=O)cc(C(=O)NCC(c3ccccc3)N(C)C)oc2c1C (stereo not drawn)
639	O=C(NCc1ccc(F)cc1)Nc1c(-c2ccccc2)nc2ccccn12
624	CCCc1nc2ccc(CCC(=O)NCc3ccc(F)cc3)cc2[nH]1
811	Cc1ccc(N2CCC(NC(=O)Nc3ccccc3)C2=O)cc1 (stereo not drawn)
836	CC1=C(c2ccccc2)S(=O)(=O)N=C1N1CCCN(C(=O)COc2ccccc2)CC1

Structure (SMILES)	RP-LC retention time [s]
COc1ccc2c(c1)C1(CCN(C(=O)Nc3ccc(OC)c(OC)c3)C1)C(=O)N2 (stereo not drawn)	671

Reference: the METLIN SMRT retention time set (Domingo-Almenara et al. 2019)
